# Results as given in ChEMBL document CHEMBL3244189, “Synthesis and antitumor properties of 7-deoxy-7-[(cis- and trans-3-aminocyclohexane)thio]carminomycinone” (1979).
# Calls of active or inactive are those of the source. No cut-off for these calls is given here.
# Experiments:
# Type in all cases: functional
# Bacillus spizizenii [1] = experiment: Antibacterial activity against Bacillus subtilis ATCC 6633 at 50 ug/ml by plate assay; settings: read-out: IZ
# [2] = system: Enterobacteria phage lambda; experiment: Induction of lambda phage production in Escherichia coli W1709 (lambda) assessed as plaque formation up to 50 ug/ml preincubated for 30 mins followed by heart infusion broth and glucose addition measured after 120 mins
# L1210 [3] = experiment: Antitumor activity against mouse L1210 cells allografted in mouse assessed as tumor growth inhibition at 0.25 to 32 mg/kg, ip relative to control; settings: dose mg/kg 0.25-32; route intraperitoneal
# [4] = system: Enterobacteria phage lambda; experiment: Induction of lambda phage production in Escherichia coli W1709 (lambda) assessed as plaque formation at 3.1 ug/ml preincubated for 30 mins followed by heart infusion broth and glucose addition measured after 120 mins relative to control
# L1210 [5] = experiment: Antitumor activity against mouse L1210 cells allografted in mouse assessed as tumor growth inhibition at 0.64 mg/kg, ip relative to control; settings: route intraperitoneal
# Bacillus spizizenii [6] = experiment: Antibacterial activity against Bacillus subtilis ATCC 6633 at 3.1 ug/ml by plate assay; settings: read-out: IZ
Structure (SMILES),zone of inhibition at 50 µg/mL (Bacillus spizizenii [1]),Activity [2],T/C (L1210 [3]),T/C [4],T/C (L1210 [5]),zone of inhibition at 3.1 µg/mL (Bacillus spizizenii [6])
CC(=O)[C@]1(O)Cc2c(O)c3c(c(O)c2[C@@H](S[C@@H]2CCC[C@@H](N)C2)C1)C(=O)c1c(O)cccc1C3=O,10.5 mm,inactive,,,,
CC(=O)[C@]1(O)Cc2c(O)c3c(c(O)c2[C@@H](S[C@H]2CCC[C@@H](N)C2)C1)C(=O)c1c(O)cccc1C3=O,10.3 mm,inactive,<125,,,
CC(=O)[C@]1(O)Cc2c(O)c3c(c(O)c2[C@@H](O[C@H]2C[C@H](N)[C@H](O)[C@H](C)O2)C1)C(=O)c1c(O)cccc1C3=O [CARUBICIN],,,,6.2,157,19 mm
